Experimental data published in patent US8937089B2, “Synergistic mixtures of anthranilamide invertebrate pest control agents” (priority 2004, dated 2015).

Tests used:
Type in all cases: in vivo
[1] = test system: cotton melon aphid (Aphis gossypii Glover); experiment: whole plant or invertebrate
In short: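 Cotton plants (6–7 days old) pre-infested with 30–40 aphids by cut-leaf method, sprayed with compound (ppm) in 10% acetone/90% water with 300 ppm X-77 surfactant, three replicates. Held 6 days at 19–21 °C, 50–70% RH; contact and/or systemic control assessed.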

[2] = test system: silverleaf whitefly (Bemisia argentifolii Bellows and Perring); experiment: whole plant or invertebrate; details: Table 2B
In short: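 Whitefly-egg-infested 12–14-day-old cotton plants sprayed with compound in 10% acetone/90% water plus 300 ppm non-ionic surfactant, in triplicate. Plants then held 13 days at 28 °C and 50–70% relative humidity before mortality assessment.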

[3] = test system: beet armyworm (Spodoptera exigua); experiment: Test I: control of beet armyworm, spray on tomato plants, excised leaves, % mortality and % feeding at 72 hours
Method: For evaluating control of beet armyworm (Spodoptera exigua), methomyl was in the liquid formulation as Lannate® LV (29% of active ingredient). Compound 1 was in a water dispersible granules (WDG) formulation with 35% active ingredient. The test compounds were dissolved in water. Enough water was added to make 100 ppm of active ingredient for each compound. Serial dilutions were made to obtain the appropriate concentrations. To obtain the desired mixture concentrations of each compound, twice the desired concentration of each of the two mixture partner compounds were mixed together in equal volumes.
The diluted solutions of the test compounds were sprayed to run-off on three-week-old tomato plants. The plants were placed on a rotating turntable sprayer (10 rpm). Test solutions were applied using a flat fan air-assisted nozzle (Spraying Systems 122440) at 10 psi (69 kPa). After each treated plant had dried, leaves were excised from the treated plant. The leaves were cut into pieces, which were placed singly into 5.5 cm-by-3.5 cm cells of a sixteen-cell plastic tray. Each cell contained a 2.5-cm square of moistened chromatography paper to prevent desiccation. One insect was placed in each cell. There two trays per treatment. […]

[4] = test system: corn planthopper (Peregrines maidis); experiment: whole plant or invertebrate; details: Corn Plant Hopper
In short: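 Compounds in 10% acetone/90% water with 300 ppm X-77 surfactant sprayed (3 replications) onto 3- to 4-day-old corn plants, dried 1 h, then infested with 10–20 corn planthopper nymphs aged 18–20 days. Held 6 days at 19-21° C. and 50-70% relative humidity; contact and/or systemic control assessed.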

[5] = test system: western flower thrip (Frankliniella occidentalis Pergande); experiment: whole plant or invertebrate; details: single compound, spray, 7 days
In short: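 Compounds in 10% acetone/90% water with 300 ppm non-ionic surfactant were sprayed onto 5- to 7-day-old bean plants, 3 replicates. After 1 h drying, 22–27 adult thrips were added per unit. Units were held 7 days at 25° C, 45–55% RH, assessing contact and/or systemic control.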

[6] = test system: potato leafhopper (Empoasca fabae Harris); experiment: whole plant or invertebrate; details: alone
In short: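 Bean plants (5–6 days old, one primary leaf excised) were sprayed with 1 mL of compound in 10% acetone/water with 300 ppm X-77 surfactant, 3 replicates. After drying for 1 h, each unit was infested with 5 adult leafhoppers. Units were held 6 days at 19–21 °C and 50–70% RH.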

[7] = test system: green peach aphid (Myzus persicae Sulzer); experiment: whole plant or invertebrate; details: Green Peach Aphid
In short: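 Compounds formulated in 10% acetone/water with 300 ppm X-77 surfactant were atomized onto aphid-infested radish seedlings, with three replicates per treatment. Infestation was 30–40 aphids transferred on excised leaf pieces, covering contact and systemic exposure. Test units stayed 6 days in a growth chamber at 19–21 °C and 50–70% relative humidity.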

[8] = test system: diamondback moth (Plutella xylostella); experiment: whole plant or invertebrate
Method: The test compounds were dissolved in water. […] Serial dilutions were made to obtain the appropriate concentrations. To obtain the desired mixture concentrations of each compound, twice the desired concentration of each of the two mixture partner compounds were mixed together in equal volumes.
The diluted solutions of the test compounds were sprayed to run-off on three-week-old tomato plants. The plants were placed on a rotating turntable sprayer (10 rpm). Test solutions were applied using a flat fan air-assisted nozzle (Spraying Systems 122440) at 10 psi (69 kPa). […] The leaves were cut into pieces, which were placed singly into 5.5 cm-by-3.5 cm cells of a sixteen-cell plastic tray. Each cell contained a 2.5-cm square of moistened chromatography paper to prevent desiccation. One insect was placed in each cell. There two trays per treatment. Trays were held in the growth chamber at 25° C., 16-hour light:8-hour dark, 60% relative humidity for 4 days.
For evaluating control of diamondback moth (Plutella xylostella), cabbage (var. Stonehead) plants were grown in Metromix potting soil in 10-cm pots in aluminum trays to test size (28 days, 3-4 full leaves) the plants were sprayed to the point of runoff using the turntable sprayer as described in Test I. Test compounds were formulated and sprayed on test plants as described for Test I. After drying for 2 hours, the treated leaves were excised and infested with one cabbage looper per cell and covered. The test units were placed on trays and put in a growth chamber at 25° C. and 60% relative humidity for 4 days.

With `CNC(=O)ON=C(C)SC` [Methomyl] the “% mortality (obs)” value ([1]; rate 2 ppm) was 11%, the “% mortality (obs)” value ([1]; rate 5 ppm) was 35% and the “% mortality (obs)” value ([1]; rate 15 ppm) was 64%. The “% mortality (obs)” value ([2]; rate 10 ppm) was 4%, the “% mortality (obs)” value ([2]; rate 100 ppm) was 3% and the “% mortality (obs)” value ([2]; rate 1000 ppm) was 6%. For the same compound, the “% feeding” value ([3]; Methomyl 5.22 ppm) was 17%, the “% mortality (observed)” value ([3]; Methomyl 5.22 ppm) was 6% and the “% feeding” value ([3]; Methomyl 10.9 ppm) was 29%. For the same compound, the “% mortality (observed)” value ([3]; Methomyl 10.9 ppm) was 10%, the “% feeding” value ([3]; Methomyl 16.3 ppm) was 9% and the “% mortality (observed)” value ([3]; Methomyl 16.3 ppm) was 44%. For the same compound, the “% feeding” value ([3]; Methomyl 20.6 ppm) was 10%, the “% mortality (observed)” value ([3]; Methomyl 20.6 ppm) was 16% and the “% feeding” value ([3]; Methomyl 37.8 ppm) was 3%. For the same compound, the “% mortality (observed)” value ([3]; Methomyl 37.8 ppm) was 44%, the “% feeding” value ([3]; Methomyl 100 ppm) was 0% and the “% mortality (observed)” value ([3]; Methomyl 100 ppm) was 84%. For the same compound, the “% mortality (obs)” value ([4]; rate 0.5 ppm) was 5%, the “% mortality (obs)” value ([4]; rate 1 ppm) was 21% and the “% mortality (obs)” value ([4]; rate 2 ppm) was 19%. For the same compound, the “% mortality (obs)” value ([5]; rate 30 ppm) was 60%, the “% mortality (obs)” value ([5]; rate 100 ppm) was 60% and the “% mortality (obs)” value ([5]; rate 300 ppm) was 100%. For the same compound, the “% mortality (obs)” value ([6]; rate 1 ppm) was 0%, the “% mortality (obs)” value ([6]; rate 2 ppm) was 53% and the “% mortality (obs)” value ([6]; rate 5 ppm) was 100%. For the same compound, the “% mortality (obs)” value ([7]; rate 50 ppm) was 20%, the “% mortality (obs)” value ([7]; rate 100 ppm) was 61% and the “% mortality (obs)” value ([7]; rate 200 ppm) was 100%. For the same compound, the “% mortality (obs)” value ([8]; rate 30 ppm) was 80%, the “% mortality (obs)” value ([8]; rate 40 ppm) was 90% and the “% mortality (obs)” value ([8]; rate 50 ppm) was 80%.
